The target in assay [1] is Vps34 enzyme (Homo sapiens (Human), UniProt Q8NEB9). In words: Vps34 Biochemical Assay (Adapta kinase assay, TR-FRET). As to conditions: 20 μM ATP and 200 μM PI:PS in substrate mix, 1 h at room temperature, read-out: Median IC50 nM Adapta. How it is done: Dilution series of compounds of the invention were prepared in DMSO at 100 times the final assay concentration (n1=n0/3 in 10 points). The compounds were further diluted to 4 times the assay concentration in assay buffer (Life technologies buffer Q, PV5125, diluted 5 times supplemented with 2 mM DTT and 2 mM MnCl2). 2.5 μl of the diluted compounds were added to a 384 well assay plate followed by 2.5 μl of 16.5 nM Vps34 enzyme (Life technologies, PV5126). Enzyme and compounds were pre-incubated at rt for 15 min. Then 5 μl of substrate mix containing 20 μM ATP (Life technologies, PV3227) and 200 μM PI:PS substrate (Life technologies, PV5122) in assay buffer was added to the wells containing compound and enzyme. Mixing was performed by pipetting several times. The reaction was incubated at room temperature for 1 h. Then 5 μl stop-detection mix, prepared as described in the Adapta kinase assay kit instructions (Life technologies, PV5099) containing Adapta Eu-anti-ADP antibody (2.3 nM), Alexa Fluor 647 ADP tracer (9 nM) and EDTA (30 mM) in TR-FRET buffer, was added to quench the reaction. Mixing was performed by pipetting several times. The assay plate was then incubated at room temperature for 30 min and read with Artemis micro plate reader. Percent inhibition of the compounds as compared to DMSO treated control samples was calculated. By the use of Dotmatics software compound concentration versus percent inhibition was fitted to generate IC50 values.
A general note: TR-FRET usually uses a lanthanide donor and a delayed reading to cut background.

In assay [2] the test system is Human osteosarcoma cells (HOS) stably expressing GFP-LC3. In words: High Content Screening Autophagy Assay (GFP-LC3 foci). The settings on record: autophagy in HOS cells, activated with KU-0063794 500 nM plus Bafilomycin A1 5 nM, 6 hours, LC3-GFP foci area per cell, read-out: Median IC50 (nM) Cellular assay. Type of assay: cell-based. How it is done: Human osteosarcoma cells (HOS) stably expressing a Green Fluorescent Protein (GFP) tagged LC3 (GFP-LC3) were used to determine the inhibitory effect on autophagy of proprietary compounds. For that purpose, autophagy was activated by using the mTOR inhibitor KU-0063794 at 500 nM in the presence of Bafilomycin A1 (Sigma-Aldrich) at 5 nM. Shortly, cells were plated overnight in clear bottom 96-well plates in DMEM—High Modified media (Hi-Clone Cat #SH30285.01). At the start of the experiment, the media was removed and replaced with fresh media containing the mTOR inhibitor, Bafilomycin A1 and the vehicle or a test compound as indicated. After 6 hours the media was removed, cells were washed twice with ice-cold phosphate buffered saline (PBS) and fixed with 4% paraformaldehyde for 20 minutes at room temperature. Then the cells were washed twice with ice-cold PBS before adding Hoechst 33342 at 1 μg/ml in PBS for nuclear staining. After incubation overnight at 4° C., cells were washed once with PBS to remove the excess of dye and 100 μl of PBS was added to each well. Images were acquired at 20× magnification, 6 images per well, using the ImageXpress automated microscope (Molecular Devices Inc.) and analyzed with MetaXpress software to identify LC3-GFP foci. Foci area per cell values were used to generate dose response curves and IC50 values were calculated using the non-linear fitting analysis in GraphPad Prism software. […] The results of the assay are shown in Table 2 (Median IC50 nM HOS-LC3).

From patent US11498919B2, “Azaindolylpyridone and diazaindolylpyridone compounds” (Sprint Bioscience AB, priority 2017, dated 2022) come the findings set out here.

A word on the IC50: it is the concentration that inhibits the measured activity by half.

Vps34 enzyme, sequence (Q8NEB9 whole entry): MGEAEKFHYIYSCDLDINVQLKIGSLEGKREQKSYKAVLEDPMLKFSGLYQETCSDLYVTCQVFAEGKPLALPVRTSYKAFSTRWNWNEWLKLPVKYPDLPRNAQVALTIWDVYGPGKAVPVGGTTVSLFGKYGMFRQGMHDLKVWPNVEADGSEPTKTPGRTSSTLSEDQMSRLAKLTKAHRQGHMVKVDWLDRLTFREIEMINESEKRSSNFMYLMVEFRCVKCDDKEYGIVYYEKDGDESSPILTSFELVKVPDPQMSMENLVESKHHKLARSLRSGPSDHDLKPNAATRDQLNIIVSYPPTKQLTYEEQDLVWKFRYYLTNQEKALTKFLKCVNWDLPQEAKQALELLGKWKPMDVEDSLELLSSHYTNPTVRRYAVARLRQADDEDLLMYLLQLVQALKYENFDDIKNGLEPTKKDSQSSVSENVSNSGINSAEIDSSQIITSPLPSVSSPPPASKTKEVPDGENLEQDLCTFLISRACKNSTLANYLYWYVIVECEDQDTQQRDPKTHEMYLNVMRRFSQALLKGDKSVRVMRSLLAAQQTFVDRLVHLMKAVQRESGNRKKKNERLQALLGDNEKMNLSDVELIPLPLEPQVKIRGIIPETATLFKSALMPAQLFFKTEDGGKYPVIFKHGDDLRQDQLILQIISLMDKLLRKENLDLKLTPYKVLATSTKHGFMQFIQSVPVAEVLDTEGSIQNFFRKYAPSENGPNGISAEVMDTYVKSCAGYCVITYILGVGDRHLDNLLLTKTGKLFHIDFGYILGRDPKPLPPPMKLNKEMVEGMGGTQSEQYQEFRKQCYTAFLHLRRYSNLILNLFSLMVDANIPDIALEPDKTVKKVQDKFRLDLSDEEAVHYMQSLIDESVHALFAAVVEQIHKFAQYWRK

On to `Cc1cc2c(-c3cc(-c4ccccc4Cl)[nH]c(=O)c3)ccnc2[nH]1` [Example 29, 6-(2-Chlorophenyl)-4-(2-methyl-1H-pyrrolo[2,3-b]pyridin-4-yl)-1H-pyridin-2-one], for which the half-maximal inhibitory concentration (IC50) is less than 5 nM in assay [1] and 54 nM in assay [2].

`O=c1cc(-c2ccnc3[nH]ccc23)cc(N2CCN(S(=O)(=O)Cc3ccc(F)cc3)CC2C(F)(F)F)[nH]1` (stereo not shown) [Example 65, 6-[4-[(4-fluorophenyl)methylsulfonyl]-2-(trifluoromethyl)piperazin-1-yl]-4-(1H-pyrrolo[2,3-b]pyridin-4-yl)-1H-pyridin-2-one]: the IC50 in assay [1] was less than 5 nM; in assay [2], 176 nM.

Consider `O=c1cc(-c2ccnc3[nH]ccc23)cc(N2CCCC2c2ccccc2)[nH]1` (stereo not shown) [Example 8, 6-(2-phenylpyrrolidin-1-yl)-4-(1H-pyrrolo[2,3-b]pyridin-4-yl)-1H-pyridin-2-one], for which the IC50 in assay [1] came out at 10 nM; in assay [2] it was 366 nM.

For `CCS(=O)(=O)N1CCN(c2cc(-c3ccnc4[nH]c(C#N)cc34)cc(=O)[nH]2)C(C(F)(F)F)C1` (stereo not shown) [Example 74, 4-[2-[4-Ethylsulfonyl-2-(trifluoromethyl)piperazin-1-yl]-6-oxo-1H-pyridin-4-yl]-1H-pyrrolo[2,3-b]pyridine-2-carbonitrile], the figures for the IC50 in assay [1] and in assay [2] were less than 5 nM and 89 nM, respectively.

As to `O=c1cc(-c2ccnc3[nH]ccc23)cc(N2CCOCC2C(F)(F)F)[nH]1` (stereo not shown) [Example 42, 4-(1H-pyrrolo[2,3-b]pyridin-4-yl)-6-[3-(trifluoromethyl)morpholin-4-yl]-1H-pyridin-2-one], the IC50 is less than 5 nM in assay [1] and 473 nM in assay [2].

For `O=c1cc(-c2ccnc3[nH]ccc23)cc(N2CCCCC2C(F)(F)F)[nH]1` (stereo not shown) [Example 37, 4-(1H-pyrrolo[2,3-b]pyridin-4-yl)-6-[2-(trifluoromethyl)-1-piperidyl]-1H-pyridin-2-one], the IC50 is less than 5 nM in assay [1] and 145 nM in assay [2].

In the case of `O=c1cc(-c2ccnc3[nH]ncc23)cc(N2CCCCC2C(F)(F)F)[nH]1` (stereo not shown) [Example 49, 4-(1H-pyrazolo[3,4-b]pyridin-4-yl)-6-[2-(trifluoromethyl)-1-piperidyl]-1H-pyridin-2-one], the IC50 was less than 5 nM in assay [1] and 62 nM in assay [2].

With `O=c1cc(-c2ccnc3[nH]c(-c4cccnc4)cc23)cc(-c2ccccc2Cl)[nH]1` [Example 27, 6-(2-Chlorophenyl)-4-[2-(3-pyridyl)-1H-pyrrolo[2,3-b]pyridin-4-yl]-1H-pyridin-2-one], the IC50 in assay [1] is less than 5 nM; in assay [2], 16 nM.

For the molecule `CCS(=O)(=O)N1CCN(c2cc(-c3ccnc4[nH]ccc34)cc(=O)[nH]2)C(C(F)(F)F)C1` (stereo not shown) [Example 71, 6-[4-Ethylsulfonyl-2-(trifluoromethyl)piperazin-1-yl]-4-(1H-pyrrolo[2,3-b]pyridin-4-yl)-1H-pyridin-2-one], the IC50 in assay [1] was less than 5 nM; in assay [2] it was 308 nM.

With `O=c1cc(-c2ccnc3[nH]ncc23)cc(-c2ccccc2C(F)(F)F)[nH]1` [Example 82, 4-(1H-pyrazolo[3,4-b]pyridin-4-yl)-6-[2-(trifluoromethyl)phenyl]-1H-pyridin-2-one], the figures for the IC50 in assay [1] and in assay [2] were less than 5 nM and 485 nM, respectively.

In the case of `Cc1cc2c(-c3cc(-c4cccnc4)[nH]c(=O)c3)ccnc2[nH]1` [Example 12, 4-(2-Methyl-1H-pyrrolo[2,3-b]pyridin-4-yl)-6-(3-pyridyl)-1H-pyridin-2-one], the values for the IC50 in assay [1] and in assay [2] were 24 nM and 554 nM, respectively.

As to `CCS(=O)(=O)N1CCN(c2cc(-c3ccnc4[nH]c(C5CC5)cc34)cc(=O)[nH]2)C(C(F)(F)F)C1` (stereo not shown) [Example 72, 4-(2-Cyclopropyl-1H-pyrrolo[2,3-b]pyridin-4-yl)-6-[4-ethylsulfonyl-2-(trifluoromethyl)piperazin-1-yl]-1H-pyridin-2-one], the half-inhibitory concentration (IC50) in assay [1] was less than 5 nM; in assay [2] it was 19 nM.

As for `CCS(=O)(=O)N1CCN(c2cc(-c3ccnc4[nH]c(C)cc34)cc(=O)[nH]2)C(C(F)(F)F)C1` (stereo not shown) [Example 73, 6-[4-Ethylsulfonyl-2-(trifluoromethyl)piperazin-1-yl]-4-(2-methyl-1H-pyrrolo[2,3-b]pyridin-4-yl)-1H-pyridin-2-one], the results for the IC50 in assay [1] and in assay [2] were less than 5 nM and 28 nM, respectively.

On to `O=c1cc(-c2ccnc3[nH]c(-c4cnco4)cc23)cc(-c2ccccc2Cl)[nH]1` [Example 23, 6-(2-Chlorophenyl)-4-(2-oxazol-5-yl-1H-pyrrolo[2,3-b]pyridin-4-yl)-1H-pyridin-2-one], for which the IC50 in assay [1] worked out at 8 nM; in assay [2], 44 nM.

On to `O=c1cc(-c2ccnc3[nH]ccc23)cc(-c2ccccc2C(F)(F)F)[nH]1` [Example 4, 4-(1H-pyrrolo[2,3-b]pyridin-4-yl)-6-[2-(trifluoromethyl)phenyl]-1H-pyridin-2-one], for which the figures for the IC50 in assay [1] and in assay [2] were less than 5 nM and 665 nM, respectively.

For `Cc1cc2c(-c3cc(N4CCCCC4C(F)(F)F)[nH]c(=O)c3)ccnc2[nH]1` (stereo not shown) [Example 36, 4-(2-Methyl-1H-pyrrolo[2,3-b]pyridin-4-yl)-6-[2-(trifluoromethyl)-1-piperidyl]-1H-pyridin-2-one], the IC50 is less than 5 nM in assay [1] and 62 nM in assay [2].

Turning to `Cc1cnccc1-c1cc(-c2ccnc3[nH]ccc23)cc(=O)[nH]1` [Example 6, 6-(3-Methyl-4-pyridyl)-4-(1H-pyrrolo[2,3-b]pyridin-4-yl)-1H-pyridin-2-one], the IC50 in assay [1] turned out to be 20 nM; in assay [2] it was 2570 nM.
